This note sets out measurements from patent US10259810B2, “N-sulfonylated pyrazolo[3,4-b]pyridin-6-carboxamides and method of use” (AbbVie S.à.r.l., priority 2015, dated 2019).

pEC50: −log10 of the molar value.

Common to all, as to format: cell-based
Experiment [1] addresses T1, ΔF508-CFTR (Homo sapiens, UniProt P13569, DEL508-508).
T1 construct: host or cells: CFBE41o-, doxycycline-inducible
Put plainly: CFTR cell surface levels using HRP-tagged ΔF508-CFTR expressing CFBE cells, in the presence of a co-corrector. The following applies: HRP-tagged ΔF508-CFTR CFBE cells, in the presence of 3 μM co-corrector; for pEC50: read-out: EC50. A digest of the protocol: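 Chemiluminescent read-out of surface HRP (15 min, dark) after PBS washes. Activity is normalized as 100×(sample−DMSO)/(3 μM co-corrector alone−DMSO).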

In a further experiment the target is T2, CFTR ΔF508 (Homo sapiens, UniProt P13569, DEL508-508).
T2 construct: bronchial epithelial cells isolated from CF patients homozygous for the CFTR ΔF508 mutation; McGill University; Asterand; University of North Carolina hAEC-CF; host or cells: primary human bronchial epithelial cells from CF patients homozygous for ΔF508, differentiated at air-liquid interface
Briefly: Chronic TECC assay, primary bronchial epithelial cells of CF patients homozygous for CFTR ΔF508 (corrector, co-corrector and potentiator). The following applies: chronic TECC, AUC = full area under the curve upon forskolin stimulation; for EC50: read-out: EC50 (nM) (AUC**); for % Activity at 1 μM (AUC**): test compound at 1 μM. Put shortly:
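Primary bronchial epithelial cells from ΔF508-homozygous CF patients on collagen IV-coated Transwells were chronically treated with test compound plus corrector and potentiator, which were re-added before recording. Ieq was derived from PD and Rt in NaCl-Ringer, pH 7.4, at 37° C, with apical amiloride and bilateral forskolin, recorded every 2 min over 20 min. Ieq increase was normalized to controls, and EC50 was taken from per-well concentrations.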

Experiment [2] deals with T1, ΔF508-CFTR. Put plainly: CFTR cell surface levels using HRP-tagged ΔF508-CFTR expressing CFBE cells, intrinsic corrector capacity. The arrangement: % Activation: concentration or dose not given beside the values. The following applies: HRP-tagged ΔF508-CFTR expressing CFBE41o- cells, compound alone (intrinsic corrector capacity), 20 hours at 33° C.; for pEC50: read-out: EC50. Put shortly: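 Surface ΔF508-CFTR was measured as HRP chemiluminescence from an extracellular-loop-4 tag, expressed as percent activity between DMSO and a […] corrector control.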

T1 sequence (P13569 with tags, fused parts or gaps DEL508-508): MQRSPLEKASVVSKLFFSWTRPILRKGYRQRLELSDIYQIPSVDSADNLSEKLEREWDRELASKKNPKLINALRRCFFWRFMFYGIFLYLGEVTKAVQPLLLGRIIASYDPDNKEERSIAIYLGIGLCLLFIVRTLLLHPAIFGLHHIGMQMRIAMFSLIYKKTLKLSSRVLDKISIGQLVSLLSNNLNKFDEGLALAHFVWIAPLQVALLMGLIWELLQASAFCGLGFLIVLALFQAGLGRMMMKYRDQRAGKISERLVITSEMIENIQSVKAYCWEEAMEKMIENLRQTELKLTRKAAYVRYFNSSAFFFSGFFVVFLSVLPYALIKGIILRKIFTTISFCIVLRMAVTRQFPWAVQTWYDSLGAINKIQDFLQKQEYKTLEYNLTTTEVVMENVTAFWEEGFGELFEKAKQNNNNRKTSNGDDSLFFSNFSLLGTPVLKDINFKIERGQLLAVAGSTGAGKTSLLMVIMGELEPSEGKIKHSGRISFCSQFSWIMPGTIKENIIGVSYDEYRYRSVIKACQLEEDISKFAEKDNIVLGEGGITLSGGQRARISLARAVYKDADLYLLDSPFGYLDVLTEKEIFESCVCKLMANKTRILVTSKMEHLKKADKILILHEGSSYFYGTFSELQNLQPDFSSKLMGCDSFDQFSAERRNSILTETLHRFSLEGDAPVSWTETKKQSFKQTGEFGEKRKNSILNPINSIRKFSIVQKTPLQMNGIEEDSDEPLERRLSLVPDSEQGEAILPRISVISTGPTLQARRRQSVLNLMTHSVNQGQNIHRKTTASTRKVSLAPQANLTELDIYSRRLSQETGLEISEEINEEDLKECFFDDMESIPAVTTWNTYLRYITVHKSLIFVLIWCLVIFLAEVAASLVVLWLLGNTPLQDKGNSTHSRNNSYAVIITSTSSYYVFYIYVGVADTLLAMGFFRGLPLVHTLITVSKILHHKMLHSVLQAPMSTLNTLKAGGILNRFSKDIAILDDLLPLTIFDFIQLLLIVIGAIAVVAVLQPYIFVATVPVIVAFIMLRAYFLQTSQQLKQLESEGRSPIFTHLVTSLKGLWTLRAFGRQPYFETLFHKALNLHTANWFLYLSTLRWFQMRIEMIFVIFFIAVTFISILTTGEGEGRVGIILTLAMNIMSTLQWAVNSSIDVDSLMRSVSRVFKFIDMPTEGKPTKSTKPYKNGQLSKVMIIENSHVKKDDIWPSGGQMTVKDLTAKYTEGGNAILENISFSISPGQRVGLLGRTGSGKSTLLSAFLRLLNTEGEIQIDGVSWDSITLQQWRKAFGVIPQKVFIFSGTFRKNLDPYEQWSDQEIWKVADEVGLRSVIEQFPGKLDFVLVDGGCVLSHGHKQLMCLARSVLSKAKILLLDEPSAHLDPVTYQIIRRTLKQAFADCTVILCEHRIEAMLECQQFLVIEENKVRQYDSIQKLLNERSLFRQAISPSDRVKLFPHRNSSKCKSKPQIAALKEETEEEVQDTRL
T2 sequence (P13569 with tags, fused parts or gaps DEL508-508): as above

The pEC50 is the negative decadic logarithm of the EC50, by convention in mol/L. As a reminder, the EC50 is the midpoint of the concentration-response curve. On to `CC(C)Oc1nn(C2CCCCC2)c2nc(C(=O)NS(C)(=O)=O)cc(-c3ccc(CN4CCN(C)CC4)cc3)c12` [Compound 441, 1-cyclohexyl-N-(methanesulfonyl)-4-{4-[(4-methylpiperazin-1-yl)methyl]phenyl}-3-[(propan-2-yl)oxy]-1H-pyrazolo[3,4-b]pyridine-6-carboxamide], for which, on ΔF508-CFTR [1], the “% Activation” value is given as 393.27% and the negative logarithm of the EC50 (pEC50) was 6.71. Also, at CFTR ΔF508, the EC50 turned out to be 206 nM and the “% Activity at 1 μM (AUC**)” value was 236.6667%. In addition, at ΔF508-CFTR [2], the “% Activation” value came out at 196.1% and the pEC50 is 6.46.

Regarding `CC(C1CCN(c2cc(C(=O)NS(C)(=O)=O)nc3c2c(C2CCC2)nn3-c2ccc(F)cc2)CC1)N1CCOCC1` (stereo not shown) [Compound 445, 3-cyclobutyl-1-(4-fluorophenyl)-N-(methanesulfonyl)-4-{4-[1-(morpholin-4-yl)ethyl]piperidin-1-yl}-1H-pyrazolo[3,4-b]pyridine-6-carboxamide], the “% Activation” value on ΔF508-CFTR [1] is given as 671.25%; on ΔF508-CFTR [2] it was 393.1%. Further, the negative-log EC50 (pEC50) was 7.23 at ΔF508-CFTR [1] and 6.96 at ΔF508-CFTR [2]. At CFTR ΔF508, the “% Activity at 1 μM (AUC**)” value is recorded as 406.6667%.

On to `COCCS(=O)(=O)NC(=O)c1cc(N2CCC(CN3CCOCC3)CC2)c2c(C3CCC3)nn(-c3ccc(F)cc3)c2n1` [Compound 447, 3-cyclobutyl-1-(4-fluorophenyl)-N-(2-methoxyethanesulfonyl)-4-{4-[(morpholin-4-yl)methyl]piperidin-1-yl}-1H-pyrazolo[3,4-b]pyridine-6-carboxamide], for which, at ΔF508-CFTR [1], the “% Activation” value amounted to 543.1% and the negative-log EC50 (pEC50) was 7.19. Also, on CFTR ΔF508, the “% Activity at 1 μM (AUC**)” value amounted to 330%. On ΔF508-CFTR [2], the “% Activation” value is listed as 330.9% and the negative-log EC50 (pEC50) was 6.61.

Consider `O=C(NS(=O)(=O)CCO)c1cc(N2CCC(N3CCOCC3)CC2)c2c(C3CCC3)nn(-c3ccc(F)cc3)c2n1` [Compound 448, 3-cyclobutyl-1-(4-fluorophenyl)-N-(2-hydroxyethanesulfonyl)-4-[4-(morpholin-4-yl)piperidin-1-yl]-1H-pyrazolo[3,4-b]pyridine-6-carboxamide], for which, at ΔF508-CFTR [1], the “% Activation” value is 431.1% and the pEC50 is 6.74. Also, the “% Activity at 1 μM (AUC**)” value on CFTR ΔF508 turned out to be 116.8948%. Also, at ΔF508-CFTR [2], the “% Activation” value is on record as 258.2% and the pEC50 is 6.32.

With `CN(C)S(=O)(=O)NC(=O)c1cc(N2CCC(N3CCOCC3)CC2)c2c(C3CCC3)nn(-c3ccccc3)c2n1` [Compound 456, 3-cyclobutyl-N-(dimethylsulfamoyl)-4-[4-(morpholin-4-yl)piperidin-1-yl]-1-phenyl-1H-pyrazolo[3,4-b]pyridine-6-carboxamide], on ΔF508-CFTR [1], the “% Activation” value is given as 457.7% and the pEC50 is 7.03. Also, the “% Activity at 1 μM (AUC**)” value on CFTR ΔF508 is 261.1621%. For the same molecule, on ΔF508-CFTR [2], the “% Activation” value is 268.4% and the pEC50 was 6.80.

With `CN(C)S(=O)(=O)NC(=O)c1cc(N2CCN(c3ccncc3)CC2)c2c(C3CCC3)nn(C3CCCCC3)c2n1` [Compound 469, 3-cyclobutyl-1-cyclohexyl-N-(dimethylsulfamoyl)-4-[4-(pyridin-4-yl)piperazin-1-yl]-1H-pyrazolo[3,4-b]pyridine-6-carboxamide], on ΔF508-CFTR [1], the “% Activation” value came out at 469.4% and the pEC50 was 6.90. Besides, on CFTR ΔF508, the EC50 stood at 108 nM and the “% Activity at 1 μM (AUC**)” value came to 293.3333%. Also, at ΔF508-CFTR [2], the “% Activation” value was determined as 253.8% and the negative logarithm of the EC50 (pEC50) is 6.69.

`CCS(=O)(=O)NC(=O)c1cc(N2CCN(c3ccncc3)CC2)c2c(C3CCC3)nn(C3CCCCC3)c2n1` [Compound 470, 3-cyclobutyl-1-cyclohexyl-N-(ethanesulfonyl)-4-[4-(pyridin-4-yl)piperazin-1-yl]-1H-pyrazolo[3,4-b]pyridine-6-carboxamide]: at ΔF508-CFTR [1], the “% Activation” value was 485.5% and the pEC50 is 6.94. Also, the “% Activity at 1 μM (AUC**)” value on CFTR ΔF508 turned out to be 210%. Further, on ΔF508-CFTR [2], the “% Activation” value was determined as 275.4% and the pEC50 was 6.64.

Consider `COCCN(C)S(=O)(=O)NC(=O)c1cc(N2CCC(N3CCOCC3)CC2)c2c(C3CCC3)nn(-c3ccc(F)cc3)c2n1` [Compound 471, 3-cyclobutyl-1-(4-fluorophenyl)-N-[(2-methoxyethyl)(methyl)sulfamoyl]-4-[4-(morpholin-4-yl)piperidin-1-yl]-1H-pyrazolo[3,4-b]pyridine-6-carboxamide], for which, at ΔF508-CFTR [1], the “% Activation” value came out at 446.07% and the negative-log EC50 (pEC50) was 6.91. Also, the “% Activity at 1 μM (AUC**)” value on CFTR ΔF508 was found to be 296.6667%. For the same molecule, on ΔF508-CFTR [2], the “% Activation” value was 240.2% and the pEC50 is 6.64.

For `CN(C)S(=O)(=O)NC(=O)c1cc(N2CCC(N3CCCCC3)CC2)c2c(C3CCC3)nn(-c3ccc(F)cc3)c2n1` [Compound 472, 4-([1,4'-bipiperidin]-1'-yl)-3-cyclobutyl-N-(dimethylsulfamoyl)-1-(4-fluorophenyl)-1H-pyrazolo[3,4-b]pyridine-6-carboxamide], at ΔF508-CFTR [1], the “% Activation” value is reported as 399.79% and the pEC50 is 6.60. Further, on CFTR ΔF508, the EC50 amounted to 34.2 nM and the “% Activity at 1 μM (AUC**)” value was 181.0865%. For the same molecule, at ΔF508-CFTR [2], the “% Activation” value worked out at 210.57% and the pEC50 was 6.17.

Turning to `COCC1CCN(c2cc(C(=O)NS(C)(=O)=O)nc3c2c(C2CCC2)nn3-c2ccnc(C3CCOCC3)c2)CC1` [Compound 473, 3-cyclobutyl-N-(methanesulfonyl)-4-[4-(methoxymethyl)piperidin-1-yl]-1-[2-(oxan-4-yl)pyridin-4-yl]-1H-pyrazolo[3,4-b]pyridine-6-carboxamide], on ΔF508-CFTR [1], the “% Activation” value was found to be 370.7% and the pEC50 is 7.36. Besides, the “% Activity at 1 μM (AUC**)” value at CFTR ΔF508 is 243.3333%. Further, at ΔF508-CFTR [2], the “% Activation” value was found to be 166.3% and the pEC50 was 7.15.

Turning to `COc1cc(-n2nc(C3CCC3)c3c(N4CCC(N5CCOCC5)CC4)cc(C(=O)NS(C)(=O)=O)nc32)ccn1` [Compound 474, 3-cyclobutyl-N-(methanesulfonyl)-1-(2-methoxypyridin-4-yl)-4-[4-(morpholin-4-yl)piperidin-1-yl]-1H-pyrazolo[3,4-b]pyridine-6-carboxamide], at ΔF508-CFTR [1], the “% Activation” value was found to be 390.2% and the negative logarithm of the EC50 (pEC50) is 6.28. Besides, the “% Activity at 1 μM (AUC**)” value on CFTR ΔF508 turned out to be 226.6667%. Further, at ΔF508-CFTR [2], the “% Activation” value amounted to 194.5% and the negative-log EC50 (pEC50) was 6.24.

As for `C[C@@H](C1CCN(c2cc(C(=O)NS(=O)(=O)N(C)C)nc3c2c(C2CCC2)nn3-c2ccc(F)cc2)CC1)N1CCOCC1` [Compound 480, 3-cyclobutyl-N-(dimethylsulfamoyl)-1-(4-fluorophenyl)-4-{4-[(1S)-1-(morpholin-4-yl)ethyl]piperidin-1-yl}-1H-pyrazolo[3,4-b]pyridine-6-carboxamide], at ΔF508-CFTR [1], the “% Activation” value came to 545.77% and the pEC50 is 7.06. In addition, the “% Activity at 1 μM (AUC**)” value on CFTR ΔF508 was found to be 548.575%. For the same molecule, at ΔF508-CFTR [2], the “% Activation” value is 322.45% and the pEC50 is 6.87.

Consider `COC1CN(S(=O)(=O)NC(=O)c2cc(N3CCC(N4CCOCC4)CC3)c3c(C4CCC4)nn(-c4ccc(F)cc4)c3n2)C1` [Compound 484, 3-cyclobutyl-1-(4-fluorophenyl)-N-(3-methoxyazetidine-1-sulfonyl)-4-[4-(morpholin-4-yl)piperidin-1-yl]-1H-pyrazolo[3,4-b]pyridine-6-carboxamide], for which, at ΔF508-CFTR [1], the “% Activation” value is listed as 485.6% and the pEC50 is 6.85. In addition, at CFTR ΔF508, the “% Activity at 1 μM (AUC**)” value is 380%. At ΔF508-CFTR [2], the “% Activation” value came to 216.9% and the pEC50 was 6.91.

Take `O=C(NS(=O)(=O)N1CCOCC1)c1cc(N2CCC(N3CCOCC3)CC2)c2c(C3CCC3)nn(-c3ccc(F)cc3)c2n1` [Compound 487, 3-cyclobutyl-1-(4-fluorophenyl)-N-(morpholine-4-sulfonyl)-4-[4-(morpholin-4-yl)piperidin-1-yl]-1H-pyrazolo[3,4-b]pyridine-6-carboxamide]: the results for the “% Activation” value on ΔF508-CFTR [1] and on ΔF508-CFTR [2] were 404.63% and 203.53%, respectively. The figures for the pEC50 at ΔF508-CFTR [1] and at ΔF508-CFTR [2] were 7.16 and 6.76, respectively. Moreover, at CFTR ΔF508, the “% Activity at 1 μM (AUC**)” value was determined as 340%.

Consider `CC(=O)N1CCN(C2CCN(c3cc(C(=O)NS(=O)(=O)N(C)C)nc4c3c(C3CCC3)nn4-c3ccc(F)cc3)CC2)CC1` [Compound 493, 4-[4-(4-acetylpiperazin-1-yl)piperidin-1-yl]-3-cyclobutyl-N-(dimethylsulfamoyl)-1-(4-fluorophenyl)-1H-pyrazolo[3,4-b]pyridine-6-carboxamide], for which, at ΔF508-CFTR [1], the “% Activation” value came out at 480.78% and the pEC50 is 7.02. Moreover, on CFTR ΔF508, the concentration for a half-maximal effect (EC50) turned out to be 371 nM and the “% Activity at 1 μM (AUC**)” value stood at 271.4141%. In addition, at ΔF508-CFTR [2], the “% Activation” value is on record as 275.2% and the pEC50 is 6.76.
